Laboratory results from patent US9498450B2, “1-aminocyclohexane derivatives for the treatment of cochlear tinnitus” (MERZ PHARMA GmbH & CO. KGaA, priority 2007, dated 2016).

Tested on: subjects with subjective tinnitus of at least moderate severity
Experiment: Double blind placebo controlled pilot trial of neramexane for treatment of tinnitus (TBF-12/THF-12 total score)
Format: in vivo, human
Conditions: for Change in TBF-12 total score, Week 16 Neramexane-Placebo LSMean / TBF-12 total score, Change LSMean / TBF-12 total score, Neramexane-Placebo LSMean Diff. ± SE / TBF-12 total score, Week 16 Change Mean ± SD / TBF-12 total score, Week 16 Actual Mean ± SD: ITT-LOCF; for TBF-12 total score, Change LSMean / TBF-12 total score, Neramexane-Placebo LSMean Diff. ± SE / TBF-12 total score, Week 16 Change Mean ± SD: baseline to week 16; for improvement as compared to placebo treatment (difference): 50 mg dose group
Experimental: Visit 1 (screening): After signing the consent form, the subject underwent a physical examination and clinical laboratory testing. Patient eligibility for the study was evaluated via a check of inclusion/exclusion criteria. An initial Tinnitus Interview was conducted. The subject also completed a Tinnitus-Beeinträchtigungs-Fragebogen (THF-12) (i.e., a 12-item German modified and validated version (Greimel K V et al., Tinnitus-Beeinträchtigungs-Fragebogen (THF-12). Manual. Frankfurt am Main: Swets & Zeitlinger B. V.; 2000) of the 25-item Tinnitus Handicap Inventory or THI (Newman C W, et al. Development of the Tinnitus Handicap Inventory. Arch Otolaryngol Head Neck Surg 1996; 122(2): 143-148; Newman C W, et al. Psychometric adequacy of the Tinnitus Handicap Inventory (THI) for evaluating treatment outcome. J Am Acad Audiol 1998; 9(2): 153-160.)), a Hospital Anxiety and Depression Scale—Depression Subscale (HADS-D) Questionnaire and a Hyperacusis (Geräuschüberempfindlichkeit-Fragenbogen (GÜF)) Questionnaire (if applicable).
Visit 2 (baseline): The subject was asked about adverse events and changes in concomitant medication/disease, which events/changes were documented. The subject was evaluated for study eligibility based on a review of the inclusion/exclusion criteria. Trial procedures as well as allowed and forbidden concomitant medications were reviewed with the subject. An initial Tinnitus Interview was conducted. The subject also completed a THF-12, HADS-D Questionnaire and GÜF Questionnaire (if applicable). The subject was enrolled in the study and study medication (placebo or neramexane) was dispensed as described below.
Visit 6 (Week 16, end of treatment): This visit occurred at the end of the 12-week fixed-dose double-blind treatment period. The subject was asked about adverse events and changes in concomitant medication/disease, which changes are documented. A clinical laboratory evaluation was performed. A follow-up Tinnitus Interview was conducted, and the subject completed a THF-12, HADS-D Questionnaire and GÜF Questionnaire (if applicable). Pure-tone audiometry (air conduction) was also conducted.
Primary Outcome • The change in THF-12 total score from baseline (Visit 2) to the endpoint visit (Visit 6, i.e. Week 16) was the primary efficacy endpoint in this study.
All efficacy analyses were performed on the ITT population using the last-observation-carried-forward (LOCF) approach. For sensitivity purposes an analysis of the per-protocol set and of observed cases was performed additionally. All statistical tests used for testing the primary efficacy (confirmatory testing) and secondary efficacy criteria (exploratory), and all other statistical tests used for exploratory analyses were two-sided hypothesis tests performed at the 5% significance level. For all variables standard descriptive statistics were calculated.
Change from baseline (Visit 2) to Week 16 in THF-12 total score was analyzed using a two-way ANCOVA model with treatment group and study centers as factors and baseline THF-12 total score as covariate. […]

[1] = 25 mg/d, subjects with mild hearing loss
[2] = 25 mg/d, subjects with tinnitus duration 3 to <8 months
[3] = 25 mg/d, total study population
[4] = 50 mg/d, subjects with mild hearing loss
[5] = 50 mg/d, subjects with tinnitus duration 3 to <8 months
[6] = 50 mg/d, total study population
[7] = 75 mg/d, subjects with mild hearing loss
[8] = 75 mg/d, subjects with tinnitus duration 3 to <8 months
[9] = 75 mg/d, total study population

CC1(C)CC(C)(C)CC(C)(N)C1 [Neramexane, 1-amino-1,3,3,5,5-pentamethylcyclohexane]
Change in TBF-12 total score, Week 16 Neramexane-Placebo LSMean (25 mg/d, HADS-D Anxiety subscale 0-7 at baseline): 0.2 | Change in TBF-12 total score, Week 16 Neramexane-Placebo LSMean (25 mg/d, HADS-D Anxiety subscale 8-10 at baseline): −2.3 | Change in TBF-12 total score, Week 16 Neramexane-Placebo LSMean (25 mg/d, HADS-D Anxiety subscale >10 at baseline): 2.3 | Change in TBF-12 total score, Week 16 Neramexane-Placebo LSMean (25 mg/d, HADS-D Depression subscale 0-7 at baseline): −0.3 | Change in TBF-12 total score, Week 16 Neramexane-Placebo LSMean (25 mg/d, HADS-D Depression subscale 8-10 at baseline): 0.6 | Change in TBF-12 total score, Week 16 Neramexane-Placebo LSMean (25 mg/d, HADS-D Depression subscale >10 at baseline): 3.9 | TBF-12 total score, Change LSMean [1]: −1.3 | TBF-12 total score, Neramexane-Placebo LSMean Diff. ± SE [1]: 0.7 ± 0.9 | TBF-12 total score, Week 16 Change Mean ± SD [1]: −1.5 ± 3.4 | TBF-12 total score, Week 16 Actual Mean ± SD (25 mg/d, subjects with mild hearing loss, score range 0-24): 13.1 ± 5.8 | TBF-12 total score, Change LSMean [2]: −2.2 | TBF-12 total score, Neramexane-Placebo LSMean Diff. ± SE [2]: 0.0 ± 0.8 | TBF-12 total score, Week 16 Change Mean ± SD [2]: −2.5 ± 3.0 | TBF-12 total score, Change LSMean [3]: −1.8 | TBF-12 total score, Neramexane-Placebo LSMean Diff. ± SE [3]: 0.5 ± 0.5 | TBF-12 total score, Week 16 Change Mean ± SD [3]: −2.0 ± 3.4 | improvement as compared to placebo treatment (difference) (patients who showed a mild hearing loss, post-hoc p=0.024): −1.9 points | improvement as compared to placebo treatment (difference) (patients whose onset of tinnitus was three to eight months before treatment, post-hoc p=0.019): −1.9 points | Change in TBF-12 total score, Week 16 Neramexane-Placebo LSMean (50 mg/d, HADS-D Anxiety subscale 0-7 at baseline): −0.5 | Change in TBF-12 total score, Week 16 Neramexane-Placebo LSMean (50 mg/d, HADS-D Anxiety subscale 8-10 at baseline): −2.9 | Change in TBF-12 total score, Week 16 Neramexane-Placebo LSMean (50 mg/d, HADS-D Anxiety subscale >10 at baseline): 0.6 | Change in TBF-12 total score, Week 16 Neramexane-Placebo LSMean (50 mg/d, HADS-D Depression subscale 0-7 at baseline): −1.3 | Change in TBF-12 total score, Week 16 Neramexane-Placebo LSMean (50 mg/d, HADS-D Depression subscale 8-10 at baseline): −1.1 | Change in TBF-12 total score, Week 16 Neramexane-Placebo LSMean (50 mg/d, HADS-D Depression subscale >10 at baseline): 3.3 | TBF-12 total score, Change LSMean [4]: −3.9 | TBF-12 total score, Neramexane-Placebo LSMean Diff. ± SE [4]: −1.9 ± 0.8 | TBF-12 total score, Week 16 Change Mean ± SD [4]: −3.8 ± 3.9 | TBF-12 total score, Week 16 Actual Mean ± SD (50 mg/d, subjects with mild hearing loss, score range 0-24): 11.5 ± 5.2 | TBF-12 total score, Change LSMean [5]: −4.0 | TBF-12 total score, Neramexane-Placebo LSMean Diff. ± SE [5]: −1.9 ± 0.8 | TBF-12 total score, Week 16 Change Mean ± SD [5]: −4.2 ± 3.9 | TBF-12 total score, Week 16 Actual Mean ± SD (50 mg/d, subjects with tinnitus duration 3 to <8 months, score range 0-24): 10.0 ± 5.1 | TBF-12 total score, Change LSMean [6]: −3.1 | TBF-12 total score, Neramexane-Placebo LSMean Diff. ± SE [6]: −0.8 ± 0.5 | TBF-12 total score, Week 16 Change Mean ± SD [6]: −3.2 ± 4.1 | Change in TBF-12 total score, Week 16 Neramexane-Placebo LSMean (75 mg/d, HADS-D Anxiety subscale 0-7 at baseline): 0.1 | Change in TBF-12 total score, Week 16 Neramexane-Placebo LSMean (75 mg/d, HADS-D Anxiety subscale 8-10 at baseline): −3.1 | Change in TBF-12 total score, Week 16 Neramexane-Placebo LSMean (75 mg/d, HADS-D Anxiety subscale >10 at baseline): 0.3 | Change in TBF-12 total score, Week 16 Neramexane-Placebo LSMean (75 mg/d, HADS-D Depression subscale 0-7 at baseline): −0.9 | Change in TBF-12 total score, Week 16 Neramexane-Placebo LSMean (75 mg/d, HADS-D Depression subscale 8-10 at baseline): 0.0 | Change in TBF-12 total score, Week 16 Neramexane-Placebo LSMean (75 mg/d, HADS-D Depression subscale >10 at baseline): 0.4 | TBF-12 total score, Change LSMean [7]: −1.8 | TBF-12 total score, Neramexane-Placebo LSMean Diff. ± SE [7]: −0.2 ± 0.9 | TBF-12 total score, Week 16 Change Mean ± SD [7]: −1.9 ± 3.2 | TBF-12 total score, Week 16 Actual Mean ± SD (75 mg/d, subjects with mild hearing loss, score range 0-24): 12.0 ± 4.6 | TBF-12 total score, Change LSMean [8]: −3.3 | TBF-12 total score, Neramexane-Placebo LSMean Diff. ± SE [8]: −1.1 ± 0.8 | TBF-12 total score, Week 16 Change Mean ± SD [8]: −3.4 ± 4.0 | TBF-12 total score, Week 16 Actual Mean ± SD (75 mg/d, subjects with tinnitus duration 3 to <8 months, score range 0-24): 10.6 ± 5.0 | TBF-12 total score, Week 16 Actual Mean ± SD [9]: 11.0 ± 5.1 | TBF-12 total score, Change LSMean [9]: −2.8 | TBF-12 total score, Neramexane-Placebo LSMean Diff. ± SE [9]: −0.5 ± 0.5 | TBF-12 total score, Week 16 Change Mean ± SD [9]: −2.9 ± 3.9 | benefit compared to patients with HADS score below 10 at baseline (50 or 75 mg daily dose monotherapy, patients with HADS total score of 10 or more at baseline): weaker benefit | response (effect in treating tinnitus) compared to total study population (patients treated within three to eight months of onset of tinnitus and patients with mild hearing loss): better response | response to treatment (subgroup analysis) (subjects classified by investigators as suffering from cochlear tinnitus): responded well
